Calls of active or inactive are those of the source. The calls are words filed in the database; no cut-off is given here.
Columns and labels:
[1] = Induction of H2S release in potassium phosphate buffer at pH 7.4 after 15 mins by methylene-blue assay; type: physicochemical; details: pH 7.4, 0.25 h
[2] = test system: RLF-6; assay: Induction of H2S release in RLF-6 cells assessed as cGMP accumulation at 250 uM after 5 mins by enzyme immuno assay; type: functional, cell-based; details: Rattus norvegicus
[3] = test system: Oryctolagus cuniculus; assay: (§1) Cardioprotective activity in New Zealand white rabbit myocardial ischemia/reperfusion injury model assessed as reduction in infarct size at 1.79 umol/kg, administered as single bolus dose at 20th min of sustained ischemia by TTC staining (reference value: 47.9 +/- 0.7 %); type: functional, Myocardium; set-up: scale not given: the % may be the effect or the level left
[4] = test system: RLF-6; assay: Induction of H2S release in RLF-6 cells assessed as cGMP accumulation after 5 mins by enzyme immuno assay; type: functional, cell-based; details: Rattus norvegicus
[5] = test system: Oryctolagus cuniculus; assay: Toxicity in New Zealand white rabbit myocardial ischemia/reperfusion injury model assessed as heart rate at 1.79 umol/kg, administered as single bolus dose at 20 mins of sustained ischemia (reference value: 276 +/- 9 bpm); type: organism-based; details: in vivo
[6] = test system: Oryctolagus cuniculus; assay: Toxicity in New Zealand white rabbit myocardial ischemia/reperfusion injury model assessed as mean blood pressure at 1.79 umol/kg, administered as single bolus dose at 20 mins of sustained ischemia in presence of non selective adenosine receptor inhibitor SPT (reference value: 64 +/- 5 mmHg); type: organism-based; details: in vivo, iv
[7] = test system: Oryctolagus cuniculus; assay: Cardioprotective activity in New Zealand white rabbit myocardial ischemia/reperfusion injury model assessed as reduction in infarct size at 3.58 umol/kg, administered as single bolus dose at 20th min of sustained ischemia by TTC staining (reference value: 47.9 +/- 0.7 %); type: functional, Myocardium; set-up: scale not given: the % may be the effect or the level left
[8] = test system: Oryctolagus cuniculus; assay: Toxicity in New Zealand white rabbit assessed as baseline mean blood pressure at 1.79 umol/kg, administered as single bolus dose (reference value: 74 +/- 5 mmHg); type: organism-based; details: in vivo
[9] = test system: Oryctolagus cuniculus; assay: Toxicity in New Zealand white rabbit assessed as baseline heart rate at 1.79 umol/kg, administered as single bolus dose in presence of non selective adenosine receptor inhibitor SPT (reference value: 269 +/- 10 bpm); type: organism-based; details: in vivo
[10] = test system: Oryctolagus cuniculus; assay: Toxicity in New Zealand white rabbit assessed as baseline heart rate at 1.79 umol/kg, administered as single bolus dose (reference value: 269 +/- 10 bpm); type: organism-based; details: in vivo
[11] = test system: Oryctolagus cuniculus; assay: Toxicity in New Zealand white rabbit myocardial ischemia/reperfusion injury model assessed as mean blood pressure at 3.58 umol/kg, administered as single bolus dose at 180 mins of reperfusion (reference value: 60 +/- 4 mmHg); type: organism-based; details: in vivo, 3 h
[12] = test system: Oryctolagus cuniculus; assay: Toxicity in New Zealand white rabbit assessed as heart weight at 1.79 umol/kg, administered as single bolus dose in presence of non selective adenosine receptor inhibitor SPT (reference value: 7.2 +/- 0.3 g); type: organism-based; details: in vivo
[13] = test system: Oryctolagus cuniculus; assay: Toxicity in New Zealand white rabbit assessed as baseline mean blood pressure at 1.79 umol/kg, administered as single bolus dose in presence of SPT (reference value: 74 +/- 5 mmHg); type: organism-based; details: in vivo
[14] = test system: Oryctolagus cuniculus; assay: Increase in VASP phosphorylation at Ser239 in tissue from ischemic area of myocardium in New Zealand white rabbit myocardial ischemia/reperfusion injury model at 1.79 umol/kg administered as single bolus dose at 10th min of reperfusion by Western blot analysis; type: functional, organism-based
[15] = test system: Oryctolagus cuniculus; assay: Toxicity in New Zealand white rabbit myocardial ischemia/reperfusion injury model assessed as heart rate at 1.79 umol/kg, administered as single bolus dose at 180 mins of reperfusion in presence of non selective adenosine receptor inhibitor SPT (reference value: 254 +/- 11 bpm); type: organism-based; details: in vivo, 3 h
[16] = test system: Oryctolagus cuniculus; assay: Toxicity in New Zealand white rabbit myocardial ischemia/reperfusion injury model assessed as mean blood pressure at 1.79 umol/kg, administered as single bolus dose at 180 mins of reperfusion in presence of SPT (reference value: 60 +/- 4 mmHg); type: organism-based; details: in vivo, 3 h
[17] = test system: Oryctolagus cuniculus; assay: Toxicity in New Zealand white rabbit assessed as baseline mean blood pressure at 3.58 umol/kg, administered as single bolus dose (reference value: 74 +/- 5 mmHg); type: organism-based; details: in vivo
[18] = test system: Oryctolagus cuniculus; assay: Toxicity in New Zealand white rabbit myocardial ischemia/reperfusion injury model assessed as heart rate at 3.58 umol/kg, administered as single bolus dose at 20 mins of sustained ischemia (reference value: 276 +/- 9 bpm); type: organism-based; details: in vivo
[19] = test system: Oryctolagus cuniculus; assay: Toxicity in New Zealand white rabbit assessed as heart weight at 1.79 umol/kg, administered as single bolus dose (reference value: 7.2 +/- 0.3 g); type: organism-based; details: in vivo
[20] = test system: Oryctolagus cuniculus; assay: Toxicity in New Zealand white rabbit myocardial ischemia/reperfusion injury model assessed as heart rate at 3.58 umol/kg, administered as single bolus dose at 180 mins of reperfusion (reference value: 254 +/- 11 bpm); type: organism-based; details: in vivo, 3 h
[21] = test system: Oryctolagus cuniculus; assay: Toxicity in New Zealand white rabbit myocardial ischemia/reperfusion injury model assessed as mean blood pressure at 3.58 umol/kg, administered as single bolus dose at 20 mins of sustained ischemia (reference value: 64 +/- 5 mmHg); type: organism-based; details: in vivo
[22] = test system: Oryctolagus cuniculus; assay: Toxicity in New Zealand white rabbit assessed as baseline heart rate at 3.58 umol/kg, administered as single bolus dose (reference value: 269 +/- 10 bpm); type: organism-based; details: in vivo
[23] = test system: Oryctolagus cuniculus; assay: Toxicity in New Zealand white rabbit assessed as heart weight at 3.58 umol/kg, administered as single bolus dose (reference value: 7.2 +/- 0.3 g); type: organism-based; details: in vivo
[24] = test system: Oryctolagus cuniculus; assay: as §1, with “20 mins before” for “20th min of”, “staining in presence of non selective adenosine receptor inhibitor SPT” for “staining”; type: functional, Myocardium; set-up: scale not given: the % may be the effect or the level left
[25] = test system: Oryctolagus cuniculus; assay: Toxicity in New Zealand white rabbit myocardial ischemia/reperfusion injury model assessed as heart rate at 1.79 umol/kg, administered as single bolus dose at 180 mins of reperfusion (reference value: 254 +/- 11 bpm); type: organism-based; details: in vivo, 3 h
[26] = test system: Oryctolagus cuniculus; assay: Increase in PLN phosphorylation at Ser16/Thr17 in tissue from ischemic area of myocardium in New Zealand white rabbit myocardial ischemia/reperfusion injury model at 1.79 umol/kg administered as single bolus dose at 10th min of reperfusion by Western blot analysis relative to control; type: functional, organism-based
[27] = test system: Oryctolagus cuniculus; assay: Toxicity in New Zealand white rabbit myocardial ischemia/reperfusion injury model assessed as mean blood pressure at 1.79 umol/kg, administered as single bolus dose at 180 mins of reperfusion (reference value: 60 +/- 4 mmHg); type: organism-based; details: in vivo, iv, 3 h
[28] = test system: Oryctolagus cuniculus; assay: Toxicity in New Zealand white rabbit myocardial ischemia/reperfusion injury model assessed as mean blood pressure at 1.79 umol/kg, administered as single bolus dose at 20 mins of sustained ischemia (reference value: 64 +/- 5 mmHg); type: organism-based; details: in vivo
[29] = test system: Oryctolagus cuniculus; assay: Toxicity in New Zealand white rabbit myocardial ischemia/reperfusion injury model assessed as heart rate at 1.79 umol/kg, administered as single bolus dose at 20 mins of sustained ischemia in presence of non selective adenosine receptor inhibitor SPT (reference value: 276 +/- 9 bpm); type: organism-based; details: in vivo
[30] = test system: Oryctolagus cuniculus; assay: Toxicity in New Zealand white rabbit myocardial ischemia/reperfusion injury model assessed as heart rate at 1.79 umol/kg, administered as single bolus dose at 20 mins of sustained ischemia in presence of NaHS (reference value: 276 +/- 9 bpm); type: organism-based; details: in vivo
[31] = test system: Oryctolagus cuniculus; assay: Toxicity in New Zealand white rabbit myocardial ischemia/reperfusion injury model assessed as mean blood pressure at 1.79 umol/kg, administered as single bolus dose at 20 mins of sustained ischemia in presence of NaHS (reference value: 64 +/- 5 mmHg); type: organism-based; details: in vivo, iv
[32] = test system: Oryctolagus cuniculus; assay: Toxicity in New Zealand white rabbit assessed as heart weight at 1.79 umol/kg, administered as single bolus dose in presence of NaHS (reference value: 7.2 +/- 0.3 g); type: organism-based; details: in vivo
[33] = test system: Oryctolagus cuniculus; assay: Toxicity in New Zealand white rabbit myocardial ischemia/reperfusion injury model assessed as heart rate at 1.79 umol/kg, administered as single bolus dose at 180 mins of reperfusion in presence of NaHS (reference value: 254 +/- 11 bpm); type: organism-based; details: in vivo, iv, 3 h
[34] = test system: Oryctolagus cuniculus; assay: Cardioprotective activity in New Zealand white rabbit myocardial ischemia/reperfusion injury model assessed as reduction in infarct size at 1.79 umol/kg, administered as single bolus dose at 20th min of sustained ischemia by TTC staining in presence of NAHS (reference value: 47.9 +/- 0.7 %); type: functional, Myocardium; set-up: scale not given: the % may be the effect or the level left
[35] = test system: Oryctolagus cuniculus; assay: Toxicity in New Zealand white rabbit assessed as baseline heart rate at 1.79 umol/kg, administered as single bolus dose in presence of NaHS (reference value: 269 +/- 10 bpm); type: organism-based; details: in vivo
[36] = test system: Oryctolagus cuniculus; assay: Toxicity in New Zealand white rabbit myocardial ischemia/reperfusion injury model assessed as mean blood pressure at 1.79 umol/kg, administered as single bolus dose at 180 mins of reperfusion in presence of NaHS (reference value: 60 +/- 4 mmHg); type: organism-based; details: in vivo, iv, 3 h
[37] = Induction of H2S release in potassium phosphate buffer at 100 uM at pH 7.4 by Amperometric method; type: physicochemical; details: pH 7.4, 100 µM
[38] = test system: Oryctolagus cuniculus; assay: Toxicity in New Zealand white rabbit assessed as baseline mean blood pressure at 1.79 umol/kg, administered as single bolus dose in presence of NaHS (reference value: 74 +/- 5 mmHg); type: organism-based; details: in vivo

Question: With CC1(C)O[C@@H]2[C@H](O1)[C@@H](COc1ccc(-c3cc(=S)ss3)cc1)O[C@H]2n1cnc2c(N)ncnc21 as the compound, how does the Activity [1] read?
Answer: Dose-dependent effect

Question: For CC1(C)O[C@@H]2[C@H](O1)[C@@H](COc1ccc(C(N)=S)cc1)O[C@H]2n1cnc2c(N)ncnc21, which Activity [1] is on record?
Answer: Dose-dependent effect

Question: What about the Activity [2] of the same compound?
Answer: Active

Question: Which Activity [3] does the source give for NC(=S)c1ccc(O)cc1 here?
Answer: 24.9%

Question: And the Activity [2]?
Answer: Active

Question: For Nc1ncnc2c1ncn2[C@@H]1O[C@H](CO)[C@@H](O)[C@H]1O, which Activity [4] is on record?
Answer: inactive

Question: What does the source list for NC(=S)c1ccc(OCCCCn2cnc3c(N)ncnc32)cc1?
Answer: Activity [3]: 16.6%; Activity [5]: 276 bpm; Activity [6]: 76 mmHg; Activity [7]: 26.7%; Activity [8]: 90 mmHg; Activity [9]: 278 bpm; Activity [10]: 266 bpm; Activity [11]: 52 mmHg; Activity [12]: 7.5 g; Activity [13]: 81 mmHg; Activity [14]: Active; Activity [15]: 276 bpm; Activity [16]: 76 mmHg; Activity [17]: 78 mmHg; Activity [18]: 242 bpm; Activity [19]: 7.2 g; Activity [20]: 258 bpm; Activity [21]: 40 mmHg; Activity [22]: 285 bpm; Activity [23]: 7.4 g; Activity [24]: 16.9%; Activity [1]: Dose-dependent effect; Activity [2]: Active; Activity [25]: 255 bpm; Activity [26]: Active; Activity [27]: 80 mmHg; Activity [28]: 82 mmHg; Activity [29]: 270 bpm

Question: Which Activity [3] does the source give for NC(=O)c1ccc(OCCCCn2cnc3c(N)ncnc32)cc1 here?
Answer: 26.6%

Question: What about the Activity [5] of the same compound?
Answer: 258 bpm

Question: What about the Activity [30] of the same compound?
Answer: 272 bpm

Question: What about the Activity [6] of the same compound?
Answer: 76 mmHg

Question: What about the Activity [31] of the same compound?
Answer: 65 mmHg

Question: What about the Activity [8] of the same compound?
Answer: 77 mmHg

Question: What about the Activity [9] of the same compound?
Answer: 278 bpm

Question: What about the Activity [10] of the same compound?
Answer: 260 bpm

Question: And the Activity [32]?
Answer: 7.4 g

Question: What about the Activity [12] of the same compound?
Answer: 7.1 g

Question: What about the Activity [13] of the same compound?
Answer: 82 mmHg

Question: What about the Activity [15] of the same compound?
Answer: 268 bpm

Question: And the Activity [16]?
Answer: 72 mmHg

Question: What about the Activity [19] of the same compound?
Answer: 7.3 g

Question: And the Activity [24]?
Answer: 41.8%

Question: What about the Activity [33] of the same compound?
Answer: 252 bpm

Question: What about the Activity [34] of the same compound?
Answer: 22.3%

Question: What about the Activity [35] of the same compound?
Answer: 268 bpm

Question: What about the Activity [25] of the same compound?
Answer: 262 bpm

Question: And the Activity [36]?
Answer: 67 mmHg

Question: What about the Activity [37] of the same compound?
Answer: Not Active

Question: And the Activity [38]?
Answer: 79 mmHg

Question: And the Activity [27]?
Answer: 71 mmHg

Question: What about the Activity [28] of the same compound?
Answer: 75 mmHg

Question: And the Activity [29]?
Answer: 259 bpm
